# According to patent US12295396B2, “Antagonists of T2R54 and compositions and uses thereof” (Firmenich Incorporated, priority 2018, dated 2025):
# pIC50: −log10 of the molar value.
# Target: T1, hT2R54 (Homo sapiens, UniProt P59534)
# T1 construct: expressed in transfected cells; it overexpresses a promiscuous G protein
# T1 sequence (P59534 1-338): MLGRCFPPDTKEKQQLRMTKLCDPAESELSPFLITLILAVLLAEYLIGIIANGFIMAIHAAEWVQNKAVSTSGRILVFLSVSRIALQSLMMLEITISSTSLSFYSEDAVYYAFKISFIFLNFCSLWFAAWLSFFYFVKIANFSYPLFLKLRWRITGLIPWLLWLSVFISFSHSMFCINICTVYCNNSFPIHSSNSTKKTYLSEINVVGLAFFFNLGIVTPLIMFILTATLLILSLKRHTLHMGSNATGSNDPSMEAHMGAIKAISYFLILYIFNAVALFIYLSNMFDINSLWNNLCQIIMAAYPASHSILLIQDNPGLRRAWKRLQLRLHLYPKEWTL
# Assay: Cell-based assay for measuring hT2R54 inhibition (FLIPR calcium, Fluo4AM, acetaminophen as bitter agonist)
# Details: Table 4; cells stably expressing hT2R54 and a promiscuous G protein; read-out: hT2R54 IC50
# In short: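 The readout was FLIPR calcium (Fluo4AM, 10 s baseline, 3 min post-addition) in cells stably carrying hT2R54 plus a promiscuous G protein, with host cells lacking hT2R54 as counter-control. Acetaminophen concentration series were tested with and without set test-compound levels. Half-maximal block of the agonist response gave the EC50/IC50.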
row,SMILES,pIC50
1,COC(=O)c1cc2c(cc1NC(=O)CN1CCOCC1)OCCO2 [compound 438],6.70
2,COC(=O)c1cc2c(cc1NC(=O)CN1CCOCC1)CCCC2 [compound 439],~5.70
3,COc1cc2c(cc1NC(=O)CN1CCCCC1)OCO2 [compound 440],5.74
4,COc1cc2c(cc1NC(=O)CN1CC(C)OC(C)C1)OCO2 (centres unmarked) [compound 443],6.49
5,CCOC(=O)C1CN(CC(=O)Nc2cc3c(cc2OC)OCO3)CCO1 (centres unmarked) [compound 444],6.30
6,CCc1cc2c(cc1NC(=O)CN1CCOCC1)OCO2 [compound 447],< 5.00
7,CCc1cc2c(cc1NC(=O)CN1CCN(C(=O)OC(C)(C)C)CC1)OCO2 [compound 448],6.15

# Now from value to molecule:
row,pIC50,SMILES
1,~6.00,COC(=O)c1cc2c(cc1NC(=O)CN1CCN(C(=O)OC(C)(C)C)CC1)OCO2 [compound 437]
2,6.00,COc1cc2c(cc1NC(=O)C(C)N1CCOCC1)OCO2 (centres unmarked) [compound 441]
3,6.70,COc1cc2c(cc1NC(=O)CN1CCSCC1)OCO2 [compound 442]
4,6.28,CCOC(=O)C1COCCN1CC(=O)Nc1cc2c(cc1OC)OCO2 (centres unmarked) [compound 445]
5,6.72,COc1cc2c(cc1NC(=O)C(C)N1CCN(C(=O)OC(C)(C)C)CC1)OCO2 (centres unmarked) [compound 446]
6,6.09,COc1cc2c(cc1NC(=O)CN1CCOCC1)CCC2 [compound 449]

# Same assay, conditions: Table 5; cells stably expressing hT2R54 and a promiscuous G protein; read-out: hT2R54 IC50
row,SMILES,pIC50
1,CCNC(=O)C1CCCN(CC(=O)Nc2cc3c(cc2OC)OCO3)C1 (centres unmarked) [compound 450],6.18
2,COc1cc2c(cc1NC(=O)CN(C)CCC(=O)NCc1ccccc1)OCO2 [compound 451],6.39
3,COc1cc2c(cc1NC(=O)CN1CCCC(C(=O)NCc3ccccc3)C1)OCO2 (centres unmarked) [compound 452],6.22
4,CNC(=O)C1CCCN(CC(=O)Nc2cc3c(cc2OC)OCO3)C1 (centres unmarked) [compound 453],6.01

# Same assay, conditions: Table 8; read-out: hT2R54 IC50
row,SMILES,pIC50
1,CC(=O)c1cc2c(cc1NC(=O)CC1CCCN(C(=O)c3cc(O)cc(O)c3)C1)OCO2 (centres unmarked) [compound 455],5.22
2,CC(=O)c1cc2c(cc1NC(=O)CC1CCCN(C(=O)c3ccc(O)c(O)c3)C1)OCO2 (centres unmarked) [compound 456],5.89
3,CC(=O)c1cc2c(cc1NC(=O)CC1CCCN(C(=O)c3cc(O)ccc3O)C1)OCO2 (centres unmarked) [compound 458],6.80
4,CC(=O)c1cc2c(cc1NC(=O)CC1CCN(C(=O)c3ncn[nH]3)CC1)OCO2 [compound 460],6.52
5,CC(=O)c1cc2c(cc1NC(=O)CC1CCN(C(=O)c3cc[nH]n3)CC1)OCO2 [compound 461],6.82
6,CC(=O)c1cc2c(cc1NC(=O)CC1CCN(C(=O)c3c[nH]c(C)n3)CC1)OCO2 [compound 463],6.40
7,CC(=O)c1cc2c(cc1NC(=O)CC1CCN(C(=O)c3n[nH]cc3C)CC1)OCO2 [compound 464],6.70
8,CC(=O)c1cc2c(cc1NC(=O)CC1CCN(C(=O)c3ccc(C)o3)CC1)OCO2 [compound 467],7.24
9,COCc1ccc(C(=O)N2CCC(CC(=O)Nc3cc4c(cc3C(C)=O)OCO4)CC2)o1 [compound 468],7.15
10,COCC(=O)N1CCC(CC(=O)Nc2cc3c(cc2C(C)=O)OCO3)CC1 [compound 469],6.30
11,CC(=O)c1cc2c(cc1NC(=O)CC1CCN(C(=O)[C@H]3CCCO3)CC1)OCO2 [compound 471],6.52
12,CC(=O)c1cc2c(cc1NC(=O)CC1CCN(C(=O)C3CCN(C)C3)CC1)OCO2 (centres unmarked) [compound 473],< 4.30
13,CC(=O)c1cc2c(cc1NC(=O)CC1CCN(C(=O)[C@H]3CCC(=O)O3)CC1)OCO2 [compound 474],6.89
14,CC(=O)c1cc2c(cc1NC(=O)CC1CCN(C(=O)CC3CCOC3)CC1)OCO2 (centres unmarked) [compound 477],6.40
15,CC(=O)c1cc2c(cc1NC(=O)CC1CCN(C(=O)CN3CCCC3)CC1)OCO2 [compound 479],< 5.00
16,COC(=O)c1cc2c(cc1NC(=O)CC1CCCN(C(=O)C3CCCO3)C1)OCO2 (centres unmarked) [compound 481],5.66

row,SMILES,pIC50
1,COC(=O)c1cc2c(cc1NC(=O)CC1CCN(C(=O)C3CCCO3)CC1)OCO2 (centres unmarked) [compound 482],5.85
2,COCc1cccc(C(=O)N2CCC(CC(=O)Nc3cc4c(cc3C(C)=O)OCCO4)CC2)c1 [compound 486],6.73
3,CC(=O)c1cc2c(cc1NC(=O)CC1CCN(C(=O)c3cc(CO)on3)CC1)OCCO2 [compound 490],6.80
4,COCc1cc(C(=O)N2CCC(CC(=O)Nc3cc4c(cc3C(C)=O)OCCO4)CC2)no1 [compound 491],6.80
5,CC(=O)c1cc2c(cc1NC(=O)CC1CCN(C(=O)C3CCCO3)CC1)OCCO2 (centres unmarked) [compound 493],6.35
6,CC(=O)c1cc2c(cc1NC(=O)CC1CCN(C(=O)[C@@H]3CCCO3)CC1)OCCO2 [compound 494],6.52
7,COc1cc2c(cc1NC(=O)CC1CCN(C(=O)c3nc(C)c[nH]3)CC1)OCO2 [compound 499],< 5.00
8,COc1cc2c(cc1NC(=O)CC1CCN(C(=O)c3ccc(C)o3)CC1)OCO2 [compound 500],5.40
9,COCc1ccc(C(=O)N2CCCC(CC(=O)Nc3cc4c(cc3C(C)=O)OCO4)C2)cc1 (centres unmarked) [compound 503],7.00
10,CC(=O)c1cc2c(cc1NC(=O)CC1CCCN(C(=O)c3nc(C)c[nH]3)C1)OCO2 (centres unmarked) [compound 504],6.80
11,CC(=O)c1cc2c(cc1NC(=O)CC1CCCN(C(=O)c3cccnc3)C1)OCO2 (centres unmarked) [compound 506],6.95
12,CC(=O)c1cc2c(cc1NC(=O)CC1CCCN(C(=O)c3ccccn3)C1)OCO2 (centres unmarked) [compound 507],6.56
13,COC(=O)c1cc2c(cc1NC(=O)CC1CCCN(C(C)=O)C1)OCCO2 (centres unmarked) [compound 508],5.92
14,CC(=O)c1cc2c(cc1NC(=O)CC1CN(C(C)=O)CCO1)OCO2 (centres unmarked) [compound 509],6.74
15,CC(=O)c1cc2c(cc1NC(=O)CC1CN(C(=O)C3CCCO3)CCO1)OCO2 (centres unmarked) [compound 510],6.82
16,COc1cc2c(cc1NC(=O)CC1CCCN(C(=O)CC(C)C)C1)OCO2 (centres unmarked) [compound 511],< 5.00

# More lines, now with the values ahead:
row,pIC50,SMILES
1,6.52,CC(=O)c1cc2c(cc1NC(=O)CC1CCN(C(=O)c3ccncc3)CC1)OCO2 [compound 454]
2,6.85,CC(=O)c1cc2c(cc1NC(=O)CC1CCCN(C(=O)c3ccc(O)cc3O)C1)OCO2 (centres unmarked) [compound 457]
3,7.02,CC(=O)c1cc2c(cc1NC(=O)CC1CCN(C(=O)c3cnn[nH]3)CC1)OCO2 [compound 459]
4,7.52,CC(=O)c1cc2c(cc1NC(=O)CC1CCN(C(=O)c3ncc[nH]3)CC1)OCO2 [compound 462]
5,7.34,CC(=O)c1cc2c(cc1NC(=O)CC1CCN(C(=O)c3nc(C)c[nH]3)CC1)OCO2 [compound 465]
6,6.15,CC(=O)c1cc2c(cc1NC(=O)CC1CCN(C(=O)c3cc(C)on3)CC1)OCO2 [compound 466]
7,6.15,COCCOCC(=O)N1CCC(CC(=O)Nc2cc3c(cc2C(C)=O)OCO3)CC1 [compound 470]
8,6.52,CC(=O)c1cc2c(cc1NC(=O)CC1CCN(C(=O)[C@@H]3CCCO3)CC1)OCO2 [compound 472]
9,6.52,CC(=O)c1cc2c(cc1NC(=O)CC1CCN(C(=O)CC3CCCO3)CC1)OCCO2 (centres unmarked) [compound 475]
10,6.52,CC(=O)c1cc2c(cc1NC(=O)CC1CCN(C(=O)CC3CCCO3)CC1)OCO2 (centres unmarked) [compound 476]
11,5.85,COC(=O)c1cc2c(cc1NC(=O)CC1CCCN(C(C)=O)C1)OCO2 (centres unmarked) [compound 480]
12,6.19,COCc1ccc(C(=O)N2CCC(CC(=O)Nc3cc4c(cc3C(=O)OC)OCO4)CC2)cc1 [compound 483]
13,6.34,COC(=O)c1cc2c(cc1NC(=O)CC1CCN(C(=O)c3ccncc3)CC1)OCO2 [compound 484]
14,6.62,CC(=O)c1cc2c(cc1NC(=O)CC1CCN(C(=O)c3cccnc3)CC1)OCCO2 [compound 485]
15,6.60,CC(=O)c1cc2c(cc1NC(=O)CC1CCN(C(=O)c3ccc(CO)o3)CC1)OCCO2 [compound 487]
16,7.82,COCc1ccc(C(=O)N2CCC(CC(=O)Nc3cc4c(cc3C(C)=O)OCCO4)CC2)s1 [compound 488]
17,6.82,COCc1ccc(C(=O)N2CCC(CC(=O)Nc3cc4c(cc3C(C)=O)OCCO4)CC2)o1 [compound 489]
18,6.70,CC(=O)c1cc2c(cc1NC(=O)CC1CCN(C(=O)[C@H]3CCCO3)CC1)OCCO2 [compound 495]
19,< 5.00,COc1cc2c(cc1NC(=O)CC1CCN(C(C)=O)CC1)OCO2 [compound 496]
20,< 5.00,COc1cc2c(cc1NC(=O)CC1CCN(C(=O)C3CCCO3)CC1)OCO2 (centres unmarked) [compound 497]
21,< 5.00,COc1cc2c(cc1NC(=O)CC1CCN(C(=O)Cc3ccco3)CC1)OCO2 [compound 498]
22,< 4.30,COc1cc2c(cc1NC(=O)CC1CCN(C(=O)c3ccncc3)CC1)OCO2 [compound 501]
23,6.77,CC(=O)c1cc2c(cc1NC(=O)CC1CCCN(C(=O)c3ccncc3)C1)OCO2 (centres unmarked) [compound 502]
24,6.89,CC(=O)c1cc2c(cc1NC(=O)CC1CCCN(C(=O)c3ncc[nH]3)C1)OCO2 (centres unmarked) [compound 505]
25,5.11,COc1cc2c(cc1NC(=O)CC1CCCN(C(=O)c3ccco3)C1)OCO2 (centres unmarked) [compound 512]
26,5.57,COc1cc2c(cc1NC(=O)CC1CCCN(C(=O)c3ccccc3)C1)OCO2 (centres unmarked) [compound 513]
27,6.30,CCS(=O)(=O)N1CCCC(CC(=O)Nc2cc3c(cc2OC)OCO3)C1 (centres unmarked) [compound 515]

# Same assay, conditions: Table 9; read-out: hT2R54 IC50
row,SMILES,pIC50
1,CC(=O)c1cc2c(cc1NC(=O)CC(C)C)OCO2 [compound 516],5.52
